Measurements reported in US20260374773A1, “MULTI-CYCLIC IRAK AND FLT3 INHIBITING COMPOUNDS AND USES THEREOF” (CHILDREN'S HOSPITAL MEDICAL CENTER, priority 2022, published 2026).

test system: MOLM14 (D835Y) cells; assay: Combination drug screening with venetoclax, Cell Titer Glo, MOLM14 (D835Y); assay type: cell-based; set-up: key: relative excess HSA score; more negative = greater synergy; settings: compound 0-0.1 μM, venetoclax 0-2 μM, 10 × 10, 48 h, negative = synergy
Experimental: Combination drug therapy has the potential to produce enhanced effects with lower side effects not obtained using either agent alone, or beyond the additive effect of the different concentrations of the two different agents. To determine whether enhanced effects are observed in different drug combinations, combination drug screening was performed as previously described (Mathews-Griner, L. A. et al., Proc. Nat. Acad. Sci., 2014, 111:2349-2354; Lin, G. L. et al., Sci. Trans. Med., 2019, 11: eaaw0064). Briefly, 10 nL of compounds were acoustically dispensed into 1536-well white polystyrene tissue culture-treated plates with an Echo 550 acoustic liquid handler (Labcyte). Cells were then added to compound-containing plates at a density of 500-cells/well in 5 μL of medium. A 10-point custom concentration range was used for all listed drugs in a 10×10 matrix. Plates were incubated for 48 hours at standard incubator conditions covered by a stainless steel gasketed lid to prevent evaporation. 48 hours post compound addition, 3 μL of Cell Titer Glo (Promega) were added to each well and plates were incubated at room temperature for 15 minutes with the stainless-steel lid in place. Luminescence readings were taken using a Viewlux imager (PerkinElmer) with a 2 second exposure time per plate.
Each compound was studied in combination with venetoclax at two concentration ranges of compound and venetoclax, respectively (for a total of 4 combination dose-response curves). The dose combinations that yielded the optimal synergy score, measured as excess HSA, which are reported in Tables 23 and 24 for the FLT3 mutant cell line MOLM14 (D835Y) and the FLT3 WT cell line THP1, respectively.
Table 23 provides combination outcomes for representative compounds with venetoclax in the Cell Titer Glo assay in MOLM14 (D835Y) cells (a FLT3 mutant cell line) at 48 hours. The table provides relative excess HSA values for compounds of the disclosure used in combination with venetoclax compared to gilteritinib hemifumarate used in combination with venetoclax. A negative excess HSA score illustrates that the drug combination is better than either drug alone, wherein greater synergy is observed at larger negative values of the excess HSA score.
Excess HSA is a measure of synergy vs. additivity or antagonism, wherein a negative excess HSA value is indicative of synergy. More information on excess HSA scores can be found in Vlot, Anna H. C. et al., Drug Discovery Today, 2019, 24(12):2286-2298. […] However, different methodologies may yield different numerical scores, and different definitions of what constitutes a deviation from mere additivity vs true drug synergy. The large negative excess HSA values provided in Tables 23 and 24 illustrate that multiple members of this structural class synergize with venetoclax. The degree to which combination therapy has to potential to produce enhanced effects with lower side effects not obtained using either agent alone, or beyond the additive effect of the different concentrations of the two different agents depends on the nature of the drugs used in the combination, and the specific doses/concentrations at which they are ultimately used in the therapeutic regimen. A negative excess HSA score illustrates that the drug combination is better than either drug alone (at the concentrations being studied). […] However, the utility in certain drug combinations vs. others should not be distinguished based on cutoffs between excess HSA scores, because the score itself is only a relative indicator that is completely dependent on experimental design and is not an absolute number. Furthermore, the concept of what constitutes clinically meaningful drug synergy is something that is still being debated, not only between pharmacologists and physicians, but amongst pharmacologists themselves. […]

`COc1cn2ncc(-c3nc(N[C@H]4CNC[C@@H]4F)c(F)cc3F)c2nc1C1CC1` [Compound 24, 6-(5-cyclopropyl-6-methoxypyrazolo[1,5-a]pyrimidin-3-yl)-3,5-difluoro-N-((3S,4S)-4-fluoropyrrolidin-3-yl)pyridin-2-amine] was tested, and the “Excess HSA” value was −1472.

same assay, conditions: compound 0-0.1 μM, venetoclax 0-20 μM, 10 × 10, 48 h, negative = synergy

In order of rising “Excess HSA” value:
1. COc1cn2ncc(-c3nc(N[C@@H]4CCCNC4)ccc3F)c2nc1C1CC1 [Compound 2, (R)-6-(5-cyclopropyl-6-methoxypyrazolo[1,5-a]pyrimidin-3-yl)-5-fluoro-N-(piperidin-3-yl)pyridin-2-amine]  −1843
2. COc1cn2ncc(-c3cncc(N[C@H]4CNCC[C@@H]4F)n3)c2nc1C1CC1 [Compound 12a, 6-(5-cyclopropyl-6-methoxypyrazolo[1,5-a]pyrimidin-3-yl)-N-((3S,4S)-4-fluoropiperidin-3-yl)pyrazin-2-amine]  −1697
3. COc1cn2ncc(-c3ccnc(N[C@H]4CNCC[C@@H]4F)n3)c2nc1C1CC1 [Compound 7a, 4-(5-cyclopropyl-6-methoxypyrazolo[1,5-a]pyrimidin-3-yl)-N-((3S,4S)-4-fluoropiperidin-3-yl)pyrimidin-2-amine]  −1364
4. COc1cn2ncc(-c3nc(N[C@H]4CNCC[C@@H]4F)ncc3F)c2nc1C(C)(C)O [Compound 6a, 2-(3-(5-fluoro-2-(((3S,4S)-4-fluoropiperidin-3-yl)amino)pyrimidin-4-yl)-6-methoxypyrazolo[1,5-a]pyrimidin-5-yl)propan-2-ol]  −1057
5. COc1cn2ncc(-c3nc(N[C@H]4CNCC[C@@H]4F)c(F)cc3F)c2nc1C1CC1 [Compound 22, 6-(5-cyclopropyl-6-methoxypyrazolo[1,5-a]pyrimidin-3-yl)-3,5-difluoro-N-((3S,4S)-4-fluoropiperidin-3-yl)pyridin-2-amine]  −992.2
6. COc1cn2ncc(-c3nc(N[C@H]4CNCC[C@@H]4F)ncc3F)c2nc1C1CC1 [Compound 15a, 4-(5-cyclopropyl-6-methoxypyrazolo[1,5-a]pyrimidin-3-yl)-5-fluoro-N-((3S,4S)-4-fluoropiperidin-3-yl)pyrimidin-2-amine]  −831
7. COc1cn2ncc(-c3nc(N[C@@H]4CCCNC4)ncc3F)c2nc1C1CC1 [Compound 14a, (R)-4-(5-cyclopropyl-6-methoxypyrazolo[1,5-a]pyrimidin-3-yl)-5-fluoro-N-(piperidin-3-yl)pyrimidin-2-amine]  −559.2

same assay, conditions: compound 0-0.2 μM, venetoclax 0-20 μM, 10 × 10, 48 h, negative = synergy

With `COc1cn2ncc(-c3ccnc(N[C@H]4CNCC[C@@H]4F)n3)c2nc1C(C)(C)O` [Compound 3a, 2-(3-(2-(((3S,4S)-4-fluoropiperidin-3-yl)amino)pyrimidin-4-yl)-6-methoxypyrazolo[1,5-a]pyrimidin-5-yl)propan-2-ol] the “Excess HSA” value was −1621.
